Counter-ions that a name gives are not always drawn. Like-named read-outs stand apart in the source and are kept apart here.
Experiments:
[1] = system: ulceration induced by exposure to stress (restraint and water immersion); assay: Effect on the ulceration induced by exposure to stress (restraint and water immersion); assay type: in vivo, male Wistar strain rats; conditions: for ED50: Rattus norvegicus, po, 30 minutes before immersion, rats, read-out: ED50 (dose required for 50% inhibition of the ulcer index)
Procedure: [I] Effect on the ulceration induced by exposure to stress (restraint and water immersion): Male Wistar strain rats (weighing, about 200 g) were placed in a stress cage which served to immobilize the animals therein and then immersed in a water bath of 23° C. to the height of xiphoid of the animals according to the method of Takagi et al. [cf. Takagi, K. and Okabe, S., Japan. J. Pharmacol., 18, 9 (1968)]. After 20 hours, the animals were sacrificed and the stomach was removed. The stomach was inflated with 13 ml of saline and placed in 5% formalin solution for 5 minutes. After washing with saline, the stomach was cut open along the greater curvature and the length (mm) of each lesion in the glandular portion was measured using a dissecting microscope (×12). The sum of the length (mm) of each lesions in a stomach was indicated as an ulcer index. In case of reference experiment using butylscopolamine bromide, a photograph of the mucosal surface of stomach was taken after the stomach was treated in the same manner as described above. The photograph was magnified by nine times, and the sum of the area (mm^2) of each lesions in a stomach was indicated as an ulcer index. The ulcer index in drug treated groups was compared with that in control group, and thereby, inhibitory percentage was calculated and then ED50 value, i.e., the dose required for 50% inhibition of the ulcer index, was determined by the usual graphic method. Drugs to be tested were suspended in 0.5% tragacanth solution and administered orally 30 minutes before the immersion. In the control group, a vehicle (0.5% tragacanth solution) was administered.

[2] = system: ulceration induced by pylorus-ligation; assay: Effect on the ulceration induced by pylorus-ligation in rats; assay type: in vivo, male Wistar strain rats; conditions: for ED50: Rattus norvegicus, po, 30 minutes before ligation, rats, 18 hours, ulcer index 0 to 5, read-out: ED50 (dose required for 50% inhibition of ulcer index)
Procedure: [II] Effect on the ulceration induced by pylorus-ligation in rats: Male Wistar strain rats (weighing about 190 g) were fasted for 48 hours before experiment. The pylorus of each rat was ligated under ether anaesthesia according to the method of Shay et al. [cf. Shay, H., et al., Gastroenterology, 5, 43-61 (1945)]. Each of the animals was then allowed to stand abstained from food and water in a cage. After 18 hours, the animals were sacrificed under ether anaesthesia, and the stomachs were removed and cut open along the greater curvature. […] 4: marked ulcers more than two 5: perforated ulcer The ulcer index in drug treated groups was compared to that in the control group, and thereby, the inhibitory percentage was calculated and then ED50, i.e. the dose required for 50% inhibition of ulcer index, was determined by the usual graphic method. Drugs to be tested were suspended in 0.5% tragacanth solution and administered 30 minutes before the ligation. In the control group, a vehicle (0.5% tragacanth solution) was administered.

gastric secretion = assay: Effect on gastric secretion in rats (pylorus ligation, total acid content); assay type: in vivo, male Wistar strain rats; conditions: for ED50: Rattus norvegicus, po, 30 minutes before ligation, rats, 4 hours after ligation, read-out: ED50 (dose required for 50% reduction of acid content)
Procedure: [III] Effect on gastric secretion in rats: Male Wistar strain rats (weighing, about 200 g) were fasted for 24 hours before experiment. The pylorus was ligated under ether anaesthesia. Four hours after the ligation, the stomach was removed under ether anaesthesia. The gastric content was collected and centrifuged, and the secretory volume, pH and acid content of the supernatant were measured. The acid content was measured by titrating to pH 7.0 with 0.02N NaOH using pH meter (Hitachi Horiba, M-5). The total acid content of the drug treated groups was compared with that of the control group, and thereby, the reduction percentage of acid content was calculated and then ED50, i.e. the dose required for 50% reduction of acid content, was determined by the usual graphic method. Drugs to be tested were suspended in 0.5% tragacanth solution and administered orally 30 minutes before the ligation. In the control group, a vehicle (0.5% tragacanth solution) was administered.

pupil size = assay: Mydriatic action in rats; assay type: in vivo, male Wistar strain rats; conditions: for Percent mydriasis: one hour after administration, 3 mm dilation = 100 percent
Excerpt: [IV] Mydriatic action in rats:
Male Wistar strain rats (weighing, 150-200 g) were used. Pupil size of the animals was twice measured microscopically just before and one hour after administration of drugs at a distance of 30 cm from the source of a constant light (30 W fluorescent light) according to the method of Pulewka [cf. Arch. exp. Path. U. Pharmakol., 168, 307 (1932)]. Based on the change between the first measured pupil size and the second measured pupil size, mydriasis percentage was calculated provided that mydriasis percentage is supposed to be 100 percent in case of 3 mm dilation of pupil size in diameter. Drugs to be tested were suspended in 0.5% tragacanth solution and administered. In the control group, a vehicle (0.5% tragacanth solution) was administered.

[3] = system: contraction of ileum preparation by acetylcholine; assay: Anti-acetylcholine action (isolated ileum contraction by acetylcholine); design: species or system male Hartley guinea-pigs; conditions: for IC50 (50% inhibition concentration), contraction of ileum by acetylcholine: acetylcholine chloride 2×10^-8 g/ml, drug added 2 minutes prior, 35° C.; for anti-acetylcholine activity (in words): isolated guinea-pig ileum
Procedure: [IV] Anti-acetylcholine action:
A piece of ileum, taken from male Hartley guinea-pigs (weighing 250-350 g) was suspended longitudinally in a bath containing Tyrode solution (20 ml) under constant bubbling of 95% oxygen and 5% carbon dioxide gas at 35° C. The contraction of the preparation by acetylcholine chloride (2×10^-8 g/ml) was recorded on an oscillograph (Nihonkoden, RJG-3004) via an isotonic transducer (Nihonkoden, TD-111S). Drugs to be tested (Compound A and Compound C) were added to the bath 2 minutes prior to the application of acetylcholine chloride. The average percent inhibition of the test Compound A against the contraction of ileum preparation by acetylcholine is shown in the accompanying FIG. 1. Based on the average percent inhibition on the graph, IC50, i.e. 50% inhibition concentration of the test compound, was calculated. […] IC50 of Compound C was calculated likewise. As a result, it was 1.9× 10^-6 g/ml.

[4] = U.S. Pat. No. 3,542,785 and 3,668,207; cited from earlier work
[5] = U.S. Pat. No. 3,542,785 and 3,668,207; cited from earlier work; remark: listed apart in the source
[6] = U.S. Pat. No. 4,237,135 and U.K. Pat. No. 2,017,698; cited from earlier work
[7] = 1 mg/kg p.o., ulcer index = sum of length (mm) of lesions
[8] = 2 mg/kg p.o., ulcer index = sum of length (mm) of lesions
[9] = 5 mg/kg p.o., ulcer index = sum of length (mm) of lesions
[10] = ulcer index = sum of length (mm) of lesions

Row | Compound | Ulcer index Inhibitory % [1, 7] [%] | Ulcer index Inhibitory % [1, 8] [%] | Ulcer index Inhibitory % [1, 9] [%] | ED50 [1, 10] [mg/kg] | Ulcer index Inhibitory % ([2]; 5 mg/kg p.o.) [%] | Ulcer index Inhibitory % ([2]; 10 mg/kg p.o.) [%] | Ulcer index Inhibitory % ([2]; 20 mg/kg p.o.) [%] | Ulcer index Inhibitory % ([2]; 50 mg/kg p.o.) [%] | ED50 [2] [mg/kg] | Total acid content Reduction % (gastric secretion; 1 mg/kg p.o.) [%] | Total acid content Reduction % (gastric secretion; 2 mg/kg p.o.) [%] | Total acid content Reduction % (gastric secretion; 5 mg/kg p.o.) [%] | ED50 (gastric secretion) [mg/kg] | IC50 (50% inhibition concentration), contraction of ileum by acetylcholine [3] [µg/mL] | anti-acetylcholine activity (in words) [3] | Ulcer index Inhibitory % ([2]; 100 mg/kg p.o.) [%] | Ulcer index Inhibitory % ([2]; 200 mg/kg p.o.) [%] | Total acid content Reduction % (gastric secretion; 20 mg/kg p.o.) [%] | Total acid content Reduction % (gastric secretion; 50 mg/kg p.o.) [%] | anti-inflammatory activity [4] | further results
1 | CCN1CCN(c2cc(-c3ccccc3)c3ccccc3n2)CC1 [Compound A, 2-(4-ethyl-1-piperazinyl)-4-phenylquinolinedihydrochloride] | 15.5 | 40.8 | 85.2 | 2.8 | 35.3 | 41.2 | 52.9 | 76.5 | 16 | 34.7 | 54.5 | 73.1 | 1.8 | 1.2 | extremely weak | – | – | – | – | – | Ulcer index Inhibitory % ([1]; 10 mg/kg p.o., ulcer index = sum of length (mm) of lesions): 88.4%; Total acid content Reduction % (gastric secretion; 0.5 mg/kg p.o.): 18.2%; Percent mydriasis (pupil size; 5 mg/kg p.o.): 4.0%; Percent mydriasis (pupil size; 10 mg/kg p.o.): 2.7%; Percent mydriasis (pupil size; 20 mg/kg p.o.): 2.7%; Percent mydriasis (pupil size; 50 mg/kg p.o.): 1.3%; Percent mydriasis (pupil size; 100 mg/kg p.o.): 2.6%; mydriatic action (in words) (pupil size; rats, up to 100 mg/kg): did entirely not show any mydriatic action even in a dose of 100 mg/kg
2 | CN/C(=N/CCSCc1nc[nH]c1C)NC#N [Cimetidine, reference compound] | – | – | – | 26.9 | – | – | – | 0 | 253 | – | – | – | 26.8 | – | – | 9.1 | 42.4 | 44.0 | 71.6 | – | Ulcer index Inhibitory % ([1]; 20 mg/kg p.o., ulcer index = sum of length (mm) of lesions): 29.1%; Ulcer index Inhibitory % ([1]; 50 mg/kg p.o., ulcer index = sum of length (mm) of lesions): 75.0%; Ulcer index Inhibitory % ([1]; 100 mg/kg p.o., ulcer index = sum of length (mm) of lesions): 77.0%; Ulcer index Inhibitory % ([2]; 500 mg/kg p.o.): 75.8%; Total acid content Reduction % (gastric secretion; 10 mg/kg p.o.): 9.4%
3 | CCCC[N+]1(C)[C@@H]2C[C@@H](OC(=O)[C@H](CO)c3ccccc3)C[C@H]1[C@@H]1O[C@@H]12 (stereo partly shown) [Butylscopolamine bromide, butylscopolamine bromide, reference compound] | – | – | – | – | – | – | – | 19.0 | > 200 | – | – | – | 25 | – | – | 28.6 | 38.1 | 44.3 | 71.0 | – | Ulcer index Inhibitory % ([1]; 20 mg/kg p.o., ulcer index = sum of area (mm^2) of lesions): -2.1%; Ulcer index Inhibitory % ([1]; 50 mg/kg p.o., ulcer index = sum of area (mm^2) of lesions): 44.1%; Ulcer index Inhibitory % ([1]; 100 mg/kg p.o., ulcer index = sum of area (mm^2) of lesions): 97.8%; ED50 ([1]; ulcer index = sum of area (mm^2) of lesions from photograph): 49.1 mg/kg; Total acid content Reduction % (gastric secretion; 100 mg/kg p.o.): 83.7%
4 | Clc1ccc2nc(N3CCN(c4ccccc4)CC3)cc(-c3ccccc3)c2c1 [6-chloro-2-(4-phenyl-1-piperazinyl)-4-phenylquinoline] | – | – | – | – | – | – | – | – | – | – | – | – | – | – | – | – | – | – | – | have anti-inflammatory activity | diuretic activity [5]: diuretic activity
5 | O=C(O)/C=C\C(=O)O.c1ccc(-c2cc(N3CCNCC3)nc3ccccc23)cc1 [Compound C, 2-(1-piperazinyl)-4-phenylquinoline monomaleate] | 55.9 | 73.6 | 71.8 | 0.45 | 37.5 | 43.8 | 56.3 | 75.0 | 14 | 45.3 | 71.3 | 86.3 | 1.1 | 1.9 | extremely weak | – | – | – | – | – | Ulcer index Inhibitory % ([1]; 0.2 mg/kg p.o., ulcer index = sum of length (mm) of lesions): 45.8%; Ulcer index Inhibitory % ([1]; 0.5 mg/kg p.o., ulcer index = sum of length (mm) of lesions): 55.5%
6 | CN1CCN(c2cc(-c3ccccc3)c3cc(Cl)ccc3n2)CC1 [6-chloro-2-(4-methyl-1-piperazinyl)-4-phenylquinoline] | – | – | – | – | – | – | – | – | – | – | – | – | – | – | – | – | – | – | – | have anti-inflammatory activity | anti-reserpine activity [6]: weak anti-reserpine activity; diuretic activity [5]: diuretic activity
